The values below come from publication PMC7618597, “Dual Nurr1/RXR agonism of valerenic acid and synthetic mimetics enables dimer-selective Nurr1 modulation” (ACS medicinal chemistry letters, 2025).

“And” between values parts separate entries of the source, which are not always exact repeats. Identical values can stand only once.

Experiment [1] concerns the target T1, Nurr1 (Homo sapiens, UniProt P43354).
T1 construct: pFA-CMV-hNurr1-LBD; expressed in transfected cells; host or cells: HEK293T
In words: Gal4-hybrid reporter gene assay, Nurr1. Format: cell-based. The conditions noted are these: Gal4-hybrid reporter gene assay; for max. act. (Nurr1): max. fold activation; for EC50: mean±S.E.M., n≥3. As for the experimental part:
modified Eagle’s medium (DMEM), high glucose supplemented with 10% fetal calf serum (FCS), sodium pyruvate (1 mM), penicillin (100 U/mL), and streptomycin (100 μg/mL) at 37 °C and 5% CO2 and seeded in 96-well plates (3×10^4 cells/well). After 24 h, the medium was changed to Opti-MEM without supplements, and the cells were transiently transfected using Lipofectamine LTX reagent (Invitrogen) according to the manufacturer’s protocol. Five hours after transfection, the cells were incubated with the test compounds in Opti-MEM supplemented with penicillin (100 U/mL), streptomycin (100 μg/mL), and 0.1% DMSO for 15 h before luciferase activity was measured using the Dual -Glo Luciferase Assay System (Promega) according to the manufacturer’s protocol on a Tecan Spark l uminometer (Tecan Deutschland GmbH, Germany). Firefly luminescence was divided by Renilla luminescence and multiplied by 1000, resulting in relative light units (RLU) to normalize for transfection efficiency and cell growth. Fold activation was obtained by dividing the mean RLU of a sample by the mean RLU of the untreated control. All samples were tested in at least three biologically independent experiments in duplicates. For dose –response curve fitting and calculation of EC50 values, the equation “[Agonist] vs. response – Variable slope (four parameters)” was used in GraphPad Prism (version 5.04, GraphPad Software, La Jolla, CA, USA). […] (10 μM, NR4A) and bexarotene (1 µM, NR2B) served as the positive control. […]
150 μM in the same buffer containing 2-4% DMSO) in 21–26 injections (1 × 1 μL and 20 × 4 to 25 × 4 μL) with an injection interval of 120 s. As control experiments, the test compounds were titrated to the buffer, and the buffer was titrated to the protein under otherwise identical conditions. The heat rates of the compound-Nurr1 LBD titrations were analyzed using NanoAnalyze software (TA Instruments, New Castle, DE) with an independent binding model.
On the technique in general: Reporter assays use an easily measured gene product as a stand-in for the process of interest.

Experiment [2] concerns rat dopaminergic neuronal cells (N27). In words: Nurr1-regulated gene expression (qPCR) in N27 cells. It counts as cell-based. As for the experimental part:
Nurr1 is a key factor of neuroprotection and health of dopaminergic neurons. Therefore, we explored the impact of 2 (10 μM) and 3 (1 μM) on gene expression in rat dopaminergic neuronal cells (N27), which have been widely used to study Nurr1 agonists[17],[18],[38],[39]. Both compounds were non-toxic at the test concentrations in a multiplex toxicity assay (Figure S5). […] Modulation of Nurr1 LBD homodimerization and heterodimerization of the LDBs of Nurr1 and RXRα was investigated by HTRF as reported previously4. Nurr1 LBD or RXRα LBD proteins labeled with sGFP were titrated against a fixed concentration of Tb3+-cryptate as streptavidin conjugate ([…], Revvity) coupled to biotinylated Nurr1 LBD protein in the presence of test compounds at 30 μM or absence of compound as a negative control (apo). Assay solutions were prepared in buffer containing 25 mM HEPES pH 7.5, 150 mM KF, 5% (m/v) glycerol, 5 mM DTT, 0.1% (m/v) CHAPS and 1% DMSO. The FRET donor complex was formed from biotinylated Nurr1 LBD (final concentration 0.188 nM) and Tb-SA (0.375 nM) and was kept constant. For the homodimerization assay, the FRET acceptor consisted of sGFP-Nurr1 LBD, which was titrated from 0.5 μM, while free sGFP was added to keep the total GFP content stable at 0.5 μM. For the heterodimerization assay, the FRET acceptor sGFP-RXRα LBD was titrated from 6 μM, while free sGFP was added to keep a constant concentration of GFP at 6 μM. Samples were equilibrated at room temperature for 2 h and fluorescence intensities (FI) after excitation at 340 nm were recorded at 520 nm for sGFP acceptor fluorescence and at 620 for Tb-SA donor fluorescence on a SPARK plate reader (Tecan Group Ltd.). FI520 was divided by FI620 and multiplied by 10,000 to give a dimensionless HTRF signal. For dose-response curve fitting, the equation “[Agonist] versus response-variable slope (four parameters)” was used in GraphPad Prism ( version 9.5.1, GraphPad Software, La Jolla, CA). Evaluation of Nurr1-regulated gene expression. N27 rat dopaminergic neural cells (SCC048, Sigma-Aldrich, Darmstadt, Germany) were cultured in RPMI 1640 medium (Gibco, Thermo Fisher Scientific, Waltham, MA, USA) supplemented with 10% FCS, penicillin (100 U/mL), and streptomycin (100 μg/mL) at 37 °C and 5% and seeded in 12-well plates (3×10^5 cells/well). […] RNA concentration and purity were assessed using a NanoDrop One UV-vis spectrophotometer (Thermo Fisher Scientific) at 260/280 nm. […]
In general terms: In qPCR the cycle at which signal appears reflects the starting amount.

T1 sequence (P43354 360-595 limits assumed): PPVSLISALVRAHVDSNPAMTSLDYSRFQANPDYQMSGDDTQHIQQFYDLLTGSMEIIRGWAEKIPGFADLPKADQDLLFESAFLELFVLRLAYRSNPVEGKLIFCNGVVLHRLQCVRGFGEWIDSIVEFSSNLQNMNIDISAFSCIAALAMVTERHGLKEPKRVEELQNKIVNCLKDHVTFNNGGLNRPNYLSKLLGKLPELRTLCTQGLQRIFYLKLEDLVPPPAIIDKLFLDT

With `Cc1c(C)n(-c2ccc(CC(=O)O)cc2)c2ccc(F)cc12` [compound 3], in experiment [1], the “max. act. (Nurr1)” value is reported as 4.3±0.5 fold and the half-maximal effective concentration (EC50) (as a rule, the concentration giving half of the maximal effect) was determined as 2.2 ± 0.9 µM. In experiment [2] (1 μM), the “mRNA expression of TH, FLRT2, BDNF, CRMP4” value was “robustly upregulated” and the “mRNA expression of XIAP, SESN3, CCND2, BIRC5, SOD2” value is “not induced”.
Consider `Cc1c2c(n(-c3ccc(CC(=O)O)cc3)c1C)CCC(F)(F)C2` [compound 2], for which, in experiment [1], the “max. act. (Nurr1)” value was 3.3 fold and 3.3±0.1 fold; the EC50 worked out at 2.6 ± 0.4 µM. Further, in experiment [2] (10 μM), the “mRNA expression of TH, FLRT2, BDNF, CRMP4” value is given as “robustly upregulated” and the “mRNA expression of XIAP, SESN3, CCND2, BIRC5, SOD2” value is given as “not induced”.
